Measured values published in patent publication US5157049A, “Method of treating cancers sensitive to treatment with water soluble derivatives of taxol” (The United States of America as represented by the …, priority 1991, dated 1992).
“And” between values parts separate entries of the source, which are not always exact repeats. Equal values may be shown once. “Also recorded” adds a separate entry of the source. Where a name gives a salt, the structure may show the parent alone.

How the values were obtained:
B16 Melanoma = experiment: Antitumor activity in the B16 melanoma system (NCI screen); conditions: for % T/C (median lifetime) / Survivors Day 4 / WT Diff, g (T - C) / cures (live animals day 60): B16, Q01D × 09; for antitumor activity (in words): summary statements on in vivo screening, Table VI
Method: Another approach to make basic derivatives is based on the concept of taking an existing hydrolysable derivative and further modifying it to form a derivative that allows for stepwise hydrolysis.
Antitumor Activity in the B16 Melanoma System^a
^a Screening was carried out under the auspices of the National Cance
Institute. For detailed explanations of procedures and data, see
Instruction 14, Screening Data Summary Interpretation and Outline of
Current Screen, Drug Evaluation Branch, Developmental Therapeutics
Program, Division of Cancer Treatment, National Cancer Institute,
Bethesda, Maryland 20892.
^b Q01D × 09. Single dose for 9 days; given in milligrams per
kilogram body weight per injection.
^c Abbreviations: survivors day 4, live animals on the fourth day of
testing/total animal; wt diff, g (T - C), the difference in body weight i
grams between test and control animals; % T/C, the median lifetime of tes
animals divided by the median lifetime of control animals, times 100; for
the solid tumor system % T/C is 100 × (change in treated tumor wt 1
day 11 - day 0)/change in control tumor wt.) if the tumor grows or 100
× (change in treated tumor wt./initial treated tumor wt.) if the
tumor regresses; cures, number of live animals on the last day of
evaluation for the B16 melanoma system (day 60) or number of animals
without measurable tumor on day 11 for the MX1 mammary tumor system.

Aqueous solubility = conditions: water
[1] = 7 mg/kg (so in the source) per injection

CC(=O)O[C@H]1C(=O)[C@@]2(C)[C@H]([C@H](OC(=O)c3ccccc3)[C@]3(O)C[C@H](OC(=O)[C@H](OC(=O)CCCC(=O)O)[C@@H](NC(=O)c4ccccc4)c4ccccc4)C(C)=C1C3(C)C)[C@]1(OC(C)=O)CO[C@@H]1C[C@@H]2O [Example 16]
% T/C (median lifetime) (B16 Melanoma; 6.63 mg/kg per injection): 207% | Survivors Day 4 (B16 Melanoma; 6.63 mg/kg per injection): 8/8 | WT Diff, g (T - C) (B16 Melanoma; 6.63 mg/kg per injection): 0.4 g | % T/C (median lifetime) (B16 Melanoma; 13.25 mg/kg per injection): 291% | Survivors Day 4 (B16 Melanoma; 13.25 mg/kg per injection): 8/8 | WT Diff, g (T - C) (B16 Melanoma; 13.25 mg/kg per injection): 0.4 g | % T/C (median lifetime) (B16 Melanoma; 26.5 mg/kg per injection): 239% | Survivors Day 4 (B16 Melanoma; 26.5 mg/kg per injection): 8/8 | WT Diff, g (T - C) (B16 Melanoma; 26.5 mg/kg per injection): 0.4 g | cures (live animals day 60) (B16 Melanoma; 26.5 mg/kg per injection): 2 | % T/C (median lifetime) (B16 Melanoma; 53 mg/kg per injection): 300% | Survivors Day 4 (B16 Melanoma; 53 mg/kg per injection): 8/8 | WT Diff, g (T - C) (B16 Melanoma; 53 mg/kg per injection): 0.4 g | cures (live animals day 60) (B16 Melanoma; 53 mg/kg per injection): 1 | antitumor activity (in words) (B16 Melanoma): very active and potent; also recorded: improved biological properties as compared to the corresponding succinates of Examples 12 and 8

CC(=O)O[C@H]1C(=O)[C@@]2(C)[C@H]([C@H](OC(=O)c3ccccc3)[C@]3(O)C[C@H](OC(=O)[C@H](OC(=O)CCC(=O)O)[C@@H](NC(=O)c4ccccc4)c4ccccc4)C(C)=C1C3(C)C)[C@]1(OC(C)=O)CO[C@@H]1C[C@@H]2O [Example 11]
% T/C (median lifetime) (B16 Melanoma; 6.25 mg/kg per injection): 125% | % T/C (median lifetime) (B16 Melanoma; 12.5 mg/kg per injection): 134% | % T/C (median lifetime) (B16 Melanoma; 25 mg/kg per injection): 176% | % T/C (median lifetime) (B16 Melanoma; 50 mg/kg per injection): 241% | antitumor activity (in words) (B16 Melanoma): much more active than the compound of Example 12 | aqueous solubility (Aqueous solubility): about 1% | aqueous solubility (in words) (Aqueous solubility): greatly improved aqueous solubility; also recorded: although still soluble, the solutions were not clear and became very viscous

CC(=O)O[C@H]1C(=O)[C@@]2(C)[C@H]([C@H](OC(=O)c3ccccc3)[C@]3(O)C[C@H](OC(=O)[C@H](OC(=O)CCCC(=O)NCCCN(C)C)[C@@H](NC(=O)c4ccccc4)c4ccccc4)C(C)=C1C3(C)C)[C@]1(OC(C)=O)CO[C@@H]1C[C@@H]2O [Example 25, Aminoamide Derivative of 2'-Glutaryltaxol]
antitumor activity (in words) (B16 Melanoma): extremely potent and active

CC(=O)O[C@H]1C(=O)[C@]2(C)[C@@H](OC(=O)CCC(=O)O)C[C@H]3OC[C@@]3(OC(C)=O)[C@H]2[C@H](OC(=O)c2ccccc2)[C@]2(O)C[C@H](OC(=O)[C@H](OC(=O)CCC(=O)O)[C@@H](NC(=O)c3ccccc3)c3ccccc3)C(C)=C1C2(C)C [Example 2, Na-Salt]
% T/C (median lifetime) (B16 Melanoma; 2.75 mg/kg per injection, listed as 2, Na-Salt): 120% | % T/C (median lifetime) (B16 Melanoma; 5.5 mg/kg per injection, listed as 2, Na-Salt): 114% | % T/C (median lifetime) (B16 Melanoma; 11 mg/kg per injection): 149% | % T/C (median lifetime) (B16 Melanoma; 22 mg/kg per injection, listed as 2, Na-Salt): 109% | % T/C (median lifetime) (B16 Melanoma; 44 mg/kg per injection, listed as 2, Na-Salt): 166% | antitumor activity (in words) (B16 Melanoma; listed as 2, sodium salt): improved antitumor activity as compared to the free acid; also recorded: considerably less active than the corresponding 2'-mono derivative of Example 1 and its salts | solubility (Aqueous solubility; aqueous solubility): ~3000 µg/mL

CC(=O)O[C@H]1C(=O)[C@@]2(C)[C@H]([C@H](OC(=O)c3ccccc3)[C@]3(O)C[C@H](OC(=O)[C@H](OC(=O)CCCC(=O)O)[C@@H](NC(=O)c4ccccc4)c4ccccc4)C(C)=C1C3(C)C)[C@]1(OC(C)=O)CO[C@@H]1C[C@@H]2O [Example 17]
% T/C (median lifetime) (B16 Melanoma; 6.13 mg/kg per injection): 159% | Survivors Day 4 (B16 Melanoma; 6.13 mg/kg per injection): 8/8 | WT Diff, g (T - C) (B16 Melanoma; 6.13 mg/kg per injection): 0.4 g | % T/C (median lifetime) (B16 Melanoma; 12.25 mg/kg per injection): 192% | Survivors Day 4 (B16 Melanoma; 12.25 mg/kg per injection): 8/8 | WT Diff, g (T - C) (B16 Melanoma; 12.25 mg/kg per injection): 0.6 g | % T/C (median lifetime) (B16 Melanoma; 24.5 mg/kg per injection): 225% | Survivors Day 4 (B16 Melanoma; 24.5 mg/kg per injection): 7/7 | WT Diff, g (T - C) (B16 Melanoma; 24.5 mg/kg per injection): 1.5 g | % T/C (median lifetime) (B16 Melanoma; 49 mg/kg per injection): 339% | Survivors Day 4 (B16 Melanoma; 49 mg/kg per injection): 7/7 | WT Diff, g (T - C) (B16 Melanoma; 49 mg/kg per injection): 0.4 g | antitumor activity (in words) (B16 Melanoma): very active and potent; also recorded: improved biological properties as compared to the corresponding succinates of Examples 12 and 8

CC(=O)O[C@H]1C(=O)[C@@]2(C)[C@H]([C@H](OC(=O)c3ccccc3)[C@]3(O)C[C@H](OC(=O)[C@H](OC(=O)CCC(=O)O)[C@@H](NC(=O)c4ccccc4)c4ccccc4)C(C)=C1C3(C)C)[C@]1(OC(C)=O)CO[C@@H]1C[C@@H]2O [Example 1, 2' Succinyltaxol]
% T/C (median lifetime) (B16 Melanoma; 2.5 mg/kg per injection): 119% | % T/C (median lifetime) (B16 Melanoma; 5 mg/kg per injection): 154% | % T/C (median lifetime) (B16 Melanoma; 10 mg/kg per injection): 159% | cures (live animals day 60) (B16 Melanoma; 10 mg/kg per injection): 1 | % T/C (median lifetime) (B16 Melanoma; 20 mg/kg per injection): 154% | % T/C (median lifetime) (B16 Melanoma; 40 mg/kg per injection): 185% | cures (live animals day 60) (B16 Melanoma; 40 mg/kg per injection): 2 | aqueous solubility (in words) (Aqueous solubility): not water soluble

CC(=O)O[C@H]1C(=O)[C@@]2(C)[C@H]([C@H](OC(=O)c3ccccc3)[C@]3(O)C[C@H](OC(=O)[C@H](OC(=O)CCC(=O)O)[C@@H](NC(=O)c4ccccc4)c4ccccc4)C(C)=C1C3(C)C)[C@]1(OC(C)=O)CO[C@@H]1C[C@@H]2O [Example 8, 2'-Succinyltaxol, Triethanolamine Salt]
% T/C (median lifetime) (B16 Melanoma; 6.75 mg/kg per injection): 230% | cures (live animals day 60) (B16 Melanoma; 6.75 mg/kg per injection): 1 | % T/C (median lifetime) (B16 Melanoma; [1]): 314% | cures (live animals day 60) (B16 Melanoma; [1]): 3 | % T/C (median lifetime) (B16 Melanoma; 13.5 mg/kg per injection): 264% | cures (live animals day 60) (B16 Melanoma; 13.5 mg/kg per injection): 1 | % T/C (median lifetime) (B16 Melanoma; 54 mg/kg per injection): TOXIC | antitumor activity (in words) (B16 Melanoma): much more active than the compound of Example 12; also recorded: especially active and potent | aqueous solubility (Aqueous solubility): about 1% | aqueous solubility (in words) (Aqueous solubility): greatly improved aqueous solubility; also recorded: although still soluble, the solutions were not clear and became very viscous

CC(=O)O[C@H]1C(=O)[C@@]2(C)[C@H]([C@H](OC(=O)c3ccccc3)[C@]3(O)C[C@H](OC(=O)[C@H](OC(=O)CCC(=O)O)[C@@H](NC(=O)c4ccccc4)c4ccccc4)C(C)=C1C3(C)C)[C@]1(OC(C)=O)CO[C@@H]1C[C@@H]2O [Example 12]
% T/C (median lifetime) (B16 Melanoma; 1.25 mg/kg per injection): 111% | % T/C (median lifetime) (B16 Melanoma; 2.5 mg/kg per injection): 159% and 125% | cures (live animals day 60) (B16 Melanoma; 2.5 mg/kg per injection): 1 | % T/C (median lifetime) (B16 Melanoma; 5 mg/kg per injection): 166% and 131% | % T/C (median lifetime) (B16 Melanoma; 10 mg/kg per injection): 183% and 160% | cures (live animals day 60) (B16 Melanoma; 10 mg/kg per injection): 1 | % T/C (median lifetime) (B16 Melanoma; 20 mg/kg per injection): 201% and 160% | % T/C (median lifetime) (B16 Melanoma; 40 mg/kg per injection): 218% and 177% | cures (live animals day 60) (B16 Melanoma; 40 mg/kg per injection): 2 | antitumor activity (in words) (B16 Melanoma; listed as 1, sodium salt): improved antitumor activity as compared to the free acid | aqueous solubility (Aqueous solubility; listed as 1, sodium salt): about 0.1%

CC(=O)O[C@H]1C(=O)[C@]2(C)[C@@H](OC(=O)CCC(=O)O)C[C@H]3OC[C@@]3(OC(C)=O)[C@H]2[C@H](OC(=O)c2ccccc2)[C@]2(O)C[C@H](OC(=O)[C@H](OC(=O)CCC(=O)O)[C@@H](NC(=O)c3ccccc3)c3ccccc3)C(C)=C1C2(C)C [Example 2, 2'7-Disuccinyltaxol]
% T/C (median lifetime) (B16 Melanoma; 1 mg/kg (so in the source) per injection): 124% | % T/C (median lifetime) (B16 Melanoma; 2.75 mg/kg per injection): 109% | % T/C (median lifetime) (B16 Melanoma; 5.5 mg/kg per injection): 113% | % T/C (median lifetime) (B16 Melanoma; 22 mg/kg per injection): 105% | % T/C (median lifetime) (B16 Melanoma; 44 mg/kg per injection): 114% | antitumor activity (in words) (B16 Melanoma): considerably less active than the corresponding 2'-mono derivative of Example 1 and its salts | aqueous solubility (in words) (Aqueous solubility): not water soluble
